How the values were obtained:
[1] = system: GFAP, Iba-1, Connexin43 (retinal inflammation markers); assay: Immunohistochemical labelling of GFAP, Iba-1 and Connexin43 in retina of light damaged rats; format: in vivo, Sprague Dawley (SD) rats
Protocol: Retina Light Damage Model of Dry Age-Related Macular Degeneration—The intense light damage model was prepared and carried out as described in previous studies. Mat Nor N, Guo C X, Rupenthal ID, Chen Y S, Green C R, Acosta M L. Sustained Connexin43 Mimetic Peptide Release From Loaded Nanoparticles Reduces Retinal and Choroidal Photodamage. Invest Ophthalmol Vis Sci. 2018; 59:3682-93; Guo C X, Mat Nor M N, Danesh-Meyer H V, Vessey K A, Fletcher E L, O'Carroll S J, et al. Connexin43 Mimetic Peptide Improves Retinal Function and Reduces Inflammation in a Light-Damaged Albino Rat Model. Invest Ophthalmol Vis Sci. 2016; 57:3961-73; Guo C X, Tran H, Green C R, Danesh-Meyer H V, Acosta M L. Gap junction proteins in the light-damaged albino rat. Mol Vis. 2014; 20:670-82; Noell W K, Walker V S, Kang B S, Berman S. Retinal damage by light in rats. Invest Ophthalmol. 1966; 5:450-73. The light damage rat model was selected as it allows direct comparison with this and other drugs. Kim Y, Griffin J M, Nor M N M, Zhang J, Freestone P S, Danesh-Meyer H V, et al. Tonabersat Prevents Inflammatory Damage in the Central Nervous System by Blocking Connexin43 Hemichannels. Neurotherapeutics. 2017; 14:1148-65; Mat Nor N, Guo C X, Rupenthal ID, Chen Y S, Green C R, Acosta M L, supra; Guo C X, Mat Nor M N, Danesh-Meyer H V, Vessey K A, Fletcher E L, O'Carroll S J, et al., supra. […] All experimental procedures were approved by the University of Auckland Animal Ethics Committee, approval No. 001462 and comply with the Association for Research in Vision and Ophthalmology (ARVO) statement for the use of animals in eye research. Six to eight-week old albino Sprague Dawley (SD) rats (200-250 g; male or female) were used. Adult SD rats were exposed to continuous bright light for 24 hours, consistently starting at 9:00 am to minimize possible time-of-day variability. Light exposure was to two animals at a time to prevent rats from taking cover using each other as a shield. The LD protocol and intervention was repeated until the number of individuals for each dose group was obtained (n=7 per group). The light luminance was 2700 lux, generated using fluorescent lamps (Philips Master TLD 18W/965; Koninklijke Philips Electronics N.V., China) directly above the animal cages. The lamps were cool and emitted broadband light, from 380 to 760 nm wavelength, with the average intensity at the top of the cage being 120 W/m2. Animals were free to move within the cage with access to food and water ad libidum. Baseline electroretinography (ERG) readings and optical coherence tomography (OCT) images were collected prior to the light damage. After light exposure, animals were returned to normal light-dark cycle conditions (12 hours light, 174 lux and 12 hours darkness, <62 lux) for 24 hours, 1 week or 2 weeks (and for one group 3 months).
Tonabersat treatment of light damaged rats—LD rats were randomly assigned to low, middle or high dose of tonabersat (n=7 per group). The mixture of tonabersat in peanut butter was prepared fresh for each experiment. Three oral tonabersat doses were tested (n=7 per group) with follow up to 2 weeks post-injury, and the highest dose group then split with three animals taken for histological analysis, and four animals followed to 3 months post-injury. There was a ten-animal vehicle only control group. The group of rats that were kept for 3 months were maintained in separate cages for drug or vehicle-treated animals, but were kept under the same light conditions. Tonabersat was fed to animals in peanut butter at 0.26 mg/kg (on average 0.08 mg delivered, estimated circulating concentration 10 μM), 0.8 mg/kg (average of 0.24 mg delivered; 30 μM circulating) or 2.4 mg/kg (on average 0.72 mg delivered; 90 μM circulating) following consideration of previous unsuccessful human trial dosing levels. Silberstein S D. Tonabersat, a novel gap-junction modulator for the prevention of migraine. Cephalalgia. […]

[2] = Estimated circulating concentration after oral tonabersat in peanut butter; format: in vivo, Sprague Dawley (SD) rats
Protocol: Tonabersat treatment of light damaged rats—LD rats were randomly assigned to low, middle or high dose of tonabersat (n=7 per group). The mixture of tonabersat in peanut butter was prepared fresh for each experiment. Three oral tonabersat doses were tested (n=7 per group) with follow up to 2 weeks post-injury, and the highest dose group then split with three animals taken for histological analysis, and four animals followed to 3 months post-injury. There was a ten-animal vehicle only control group. The group of rats that were kept for 3 months were maintained in separate cages for drug or vehicle-treated animals, but were kept under the same light conditions. Tonabersat was fed to animals in peanut butter at 0.26 mg/kg (on average 0.08 mg delivered, estimated circulating concentration 10 μM), 0.8 mg/kg (average of 0.24 mg delivered; 30 μM circulating) or 2.4 mg/kg (on average 0.72 mg delivered; 90 μM circulating) following consideration of previous unsuccessful human trial dosing levels. Silberstein S D. Tonabersat, a novel gap-junction modulator for the prevention of migraine. Cephalalgia. 2009; 29 Suppl 2:28-35; Dahlof C G, Hauge A W, Olesen J. Efficacy and safety of tonabersat, a gap-junction modulator, in the acute treatment of migraine: a double-blind, parallel-group, randomized study. Cephalalgia. 2009; 29 Suppl 2:7-16; Goadsby P J, Ferrari M D, Csanyi A, Olesen J, Mills J G, Tonabersat TONSG. Randomized, double-blind, placebo-controlled, proof-of-concept study of the cortical spreading depression inhibiting agent tonabersat in migraine prophylaxis. Cephalalgia. 2009; 29:742-50. […] The treatment groups were known to the investigator at the time of treatment, but groups were then randomized prior to statistical comparison which meant that analysis was conducted without the knowledge of which were treated or control animals. […] Two weeks later animals were again assessed with ERG and OCT and tissue collection proceeded immediately after, except for four rats in the high dose group that were under experimentation for 3 more months.

[3] = all tonabersat treated groups, p<0.001

- estimated circulating concentration ([2]; 0.26 mg/kg oral in peanut butter (on average 0.08 mg delivered)): 10 µM
- estimated circulating concentration ([2]; 0.8 mg/kg oral in peanut butter (average 0.24 mg delivered)): 30 µM
- estimated circulating concentration ([2]; 2.4 mg/kg oral in peanut butter (on average 0.72 mg delivered)): 90 µM
Structure (SMILES): CC(=O)c1ccc2c(c1)[C@H](NC(=O)c1ccc(F)c(Cl)c1)[C@H](O)C(C)(C)O2 [tonabersat, N-[(3S,4S)-6-acetyl-3-hydroxy-2,2-dimethyl-3,4-dihydrochromen-4-yl]-3-chloro-4-fluorobenzamide]
- Iba-1 reactivity ([1]; 0.26 mg/kg): slightly higher level
- GFAP labelling ([1]; 0.26 mg/kg, significantly less than vehicle): slight increase
- GFAP immunoreactivity in the retina compared to vehicle ([1]; 0.8 mg/kg): did not increase
- GFAP immunoreactivity in the retina compared to vehicle ([1]; 2.4 mg/kg): did not increase
- Connexin43 immunoreactivity in the retina compared to vehicle ([1]; all three tonabersat doses): less
- Connexin43 level, image quantification vs vehicle controls [1, 3]: significantly less
- GFAP level, image quantification vs vehicle controls [1, 3]: significantly less
- Iba-1 level, image quantification vs vehicle controls [1, 3]: significantly less
- Iba-1 immunolabelled cells in inner plexiform layer compared to vehicle ([1]; drug treated groups (all three doses)): less active

Source: patent publication US20220401408A1, “COMPOSITIONS AND METHODS FOR RESCUING RETINAL AND CHOROIDAL STRUCTURE AND FUNCTION” (AUCKLAND UNISERVICES LIMITED, priority 2019, published 2022)
